Data set [1] in a line: serum chemistry (hepatic and renal function panel) in the therapeutic study. Conditions: day 7 after the last dosage. The class given is in vivo, mice. Here is the method: (§1) Tumor bearing mice (n=6-8) were intravenously administered PBS; Velcade® (0.8 mg/kg); BTZ-PVA (0.8, 1.2 mg/kg); DOX (4 mg/kg); DOX-DCMs (4 mg/kg); BTZ 0.8 mg/kg followed by DOX 4 mg/kg 24 h later; or BTZ-PVA 0.8 mg/kg followed by DOX-DCMs 24 h later every four days for a total of 6 doses. Data represent mean±SEM.

The nature of data set [2]: blood cell count after the last dosage in the therapeutic study. The class given is in vivo, mice. Here is the method:
as §1

A short description of data set [3]: in vitro DOX release from PVA-LA NPs by dialysis. Format: physicochemical. Conditions: PBS, within 1 h. The procedure: Drug release study. DOX-loaded Cr-PVA-LA NPs solution was prepared to determine the in vitro drug release profile. The initial DOX concentration was 1.0 mg/mL, Aliquots of the DOX-loaded Cr-PVA-LA NPs solution were injected into dialysis cartridges with 3.5 kDa MWCO. The cartridges were dialyzed against 100 volume times PBS solution at 37° C. and rotator rate was set to 100 rpm. […] Values were reported as the means for each triplicate samples.
Loading and Triggered Release of DOX. […] The accumulated release results shown in FIG. 14 represent the total amount of DOX released from different sample. […] More than 50% of DOX were release within 1 h. […] It should be further noted that no burst release was observed even in the presence of NAC. The unique core-shell structure contributes to the constant release rate. This biodegradable PVA-LA NPs is a highly promising approach to controlled drug release.

In data set [4] the test system is SKOV-3 ovarian cancer cells. Kind of data set: cellular uptake (flow cytometry, confocal microscopy). The class given is cell-based. The procedure: The uptake profiles of DOX-loaded PPNs in SKOV-3 ovarian cancer cells were qualitatively observed by confocal microscopy. SKOV-3 cells were seeded in an 8-well slide. […] Then the cells were washed thrice with PBS buffer, fixed with 4% paraformaldehyde for 15 min. The nuclei were stained with DAPI. The slides were mounted with coverslips and observed by confocal microscopy.
The cellular uptake efficiency of PPNs in SKOV3 ovarian cancer cells was quantified with flow cytometry at different incubation time points (FIG. 19a). […] Additionally, a marked increase in porphyrin fluorescence from PPNs was visualized in the cytoplasm at 6 hrs, compared to that at 30 min after incubation.
In general terms: In flow cytometry, cells or beads pass a laser one at a time.

Data set [5] in a line: in vitro DOX release from PPNs by dialysis. Format: physicochemical. Conditions: PBS 37° C., within the first 5 hrs.
Experimental: In vitro drug release profiles were carried out using the dialysis method. Aliquots of DOX-loaded PPNs solution were injected into a dialysis cartridge with a molecular weight cutoff of 3.5 kDa. The whole dialysis process was carried out at 37° C. with swirling at 70 rpm in the presence of 10 g/L activated charcoal in 1 L PBS buffer. The concentration of DOX remained in the dialysis cartridge at various time points was determined by absorbance measurement.
The test system of data set [6] is subcutaneous SKOV-3 tumor. Kind of data set: phototherapy and tumor response. The class given is in vivo, mice.
Experimental: Phototherapy and tumor response. Subcutaneous SKOV-3 tumor-bearing mice were used for in vivo therapeutic study when tumor volumes reached 80-120 mm^3 (designate as Day 0). The therapeutic efficacy and toxicity profiles of different PPNs formulations were evaluated. On day 0, all mice were randomly divided into seven groups (n=6). […] The DOX was given at the dose of 2.5 mg/kg, and PPNs was given at the dose of 2 mg/kg, calculated on the porphyrin content. The treatment was given every 5 days on day 0, 5, 10 and 15 for a total 4 doses. […] Tumor size and body weight were measured twice a week. Tumor volume was calculated using the equation (L×W^2)/2, where L is the longest and W is shortest in tumor diameters (mm). For humane reasons, mice were sacrificed when tumor volume reached 1000 mm^3, which was considered as the end point of survival data.
For data set [7], the system named is subcutaneous MDA-MB-231 breast cancer xenografts. Kind of data set: in vivo therapeutic study, breast cancer xenograft. Conditions: 5 mg/kg intravenous, every four day, 6 doses. Also on record: species or system nude mice. Here is the method: In vivo therapeutic study. Subcutaneous MDA-MB-231 breast cancer xenografts were implanted into nude mice as described above. […] On day 0, these mice were randomly divided into three groups, with five mice in each group. […] Tumor volume was calculated by the formula (L×W^2)/2, where L is the longest and W is the shortest in tumor diameters(mm). Anti-tumor efficacy in breast cancer xenograft mouse mode The anti-tumor effects of DOX-PVA-LA NPs after intravenous injection were evaluated in subcutaneous MDA-MB-231 tumor bearing mice.

The nature of data set [8]: in vivo toxicity evaluation. Also on record: species or system mice. Conditions: 5 days after the last dose. The procedure: Phototherapy and tumor response. Subcutaneous SKOV-3 tumor-bearing mice were used for in vivo therapeutic study when tumor volumes reached 80-120 mm^3 (designate as Day 0). The therapeutic efficacy and toxicity profiles of different PPNs formulations were evaluated. On day 0, all mice were randomly divided into seven groups (n=6). Mice were intravenously administered with PBS, blank PPNs, DOX·HCl and PPNs-DOX. The DOX was given at the dose of 2.5 mg/kg, and PPNs was given at the dose of 2 mg/kg, calculated on the porphyrin content. The treatment was given every 5 days on day 0, 5, 10 and 15 for a total 4 doses. […] Tumor size and body weight were measured twice a week. Tumor volume was calculated using the equation (L×W^2)/2, where L is the longest and W is shortest in tumor diameters (mm). For humane reasons, mice were sacrificed when tumor volume reached 1000 mm^3, which was considered as the end point of survival data. At day 5 after the last dosage, blood samples were collected from each group to test blood cell counts and serum chemistry.
In vivo toxicity evaluation. The potential toxicity of PPNs and the related formulations was assessed in all treated mice. The body weight change, blood cell counts and serum chemistry including renal and hepatic function panels were monitored. […]

A short description of data set [9]: cumulative BTZ release in PBS medium. Format: physicochemical. Conditions: PBS pH 7.4, within the first 3 h.

In [1] (4 mg/kg), `COc1cccc2c1C(=O)c1c(O)c3c(c(O)c1C2=O)C[C@@](O)(C(=O)CO)C[C@@H]3O[C@H]1C[C@H](N)[C@H](O)[C@H](C)O1` [DOX, doxorubicin] gave an ALT of 42.6 ± 8.6 U/L, an AST of 167.7 ± 23.4 U/L, a BUN of 18.0 ± 2.6 mg/dL and a Creatinine of 0.2 ± 0.0 mg/dL. In data set [1] (4 mg/kg), the “Total Bilirubin” value worked out at 0.1 ± 0.0 mg/dL. In data set [2] (4 mg/kg), this compound returned a Hemoglobin of 13.6 ± 0.9 g/dL, a Neutrophil cells of 0.5 ± 0.2 K/μl, a Platelets of 1618.2 ± 190.5 K/μL and an RBC of 8.3 ± 0.5 M/μl. In data set [2] (4 mg/kg), this compound displayed a WBC of 5.8 ± 1.0 K/μl. In addition, in [3], the DOX released result was “More than 50%”. In data set [4] (30 min incubation), the “intracellular localization of DOX fluorescence” value is listed as “could be observed in the nuclei”. Besides, in data set [4] (6 hrs incubation), the “intracellular localization of DOX fluorescence” value is recorded as “completely transported into the nuclei”. For the same compound, in data set [5], the DOX released worked out at 90%. For the same compound, in [6] (DOX 2.5 mg/kg iv days 0, 5, 10, 15, without light), the “tumor growth compared to PBS control” value is “did not exhibit obvious antitumor effect”. In data set [6] (without light), the “survival compared to PBS control” value is “no obvious prolonged survival rate”. In addition, the “anti-tumor activity compared with PBS control” value in [7] is listed as “significant anti-tumor activity”. Moreover, the “white blood cell counts” value in data set [8] is given as “certain decrease”.
For `CC(C)C[C@H](NC(=O)[C@H](Cc1ccccc1)NC(=O)c1cnccn1)B(O)O` [BTZ, [(1R)-3-methyl-1-({(2S)-3-phenyl-2-[(pyrazin-2-ylcarbonyl)amino]propanoyl}amino)butyl] boronic acid], in data set [1] (0.8 mg/kg), the ALT is 28.3 ± 3.3 U/L, the AST stood at 117.1 ± 26.4 U/L, the BUN is on record as 16.3 ± 2.1 mg/dL and the Creatinine was 0.2 ± 0.1 mg/dL. Also, in data set [1] (0.8 mg/kg), the “Total Bilirubin” value is given as 0.1 ± 0.0 mg/dL. Besides, in data set [2] (0.8 mg/kg), the Hemoglobin was 14.6 ± 0.6 g/dL, the Neutrophil cells stood at 0.5 ± 0.4 K/μl, the Platelets was 1424.3 ± 146.2 K/μL and the RBC came out at 9.2 ± 0.5 M/μl. In addition, the WBC in data set [2] (0.8 mg/kg) amounted to 5.6 ± 1.3 K/μl. In addition, in [9], the BTZ released result is on record as “about 80%”.

These data come from US11135309B2, “Poly(vinyl alcohol) nanocarriers” (THE REGENTS OF THE UNIVERSITY OF CALIFORNIA, priority 2015, dated 2021).
